According to ChEMBL document CHEMBL1201862, “PubChem BioAssay data set” (2004):
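Cells were grown in 96-well plates and exposed to each compound for 48 hours at five concentrations; endpoints were interpolated linearly between bracketing concentrations, or set to the highest concentration if not reached. Here, GI50 denotes the concentration required for 50% inhibition of growth.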 Activity calls are given as the source filed them. Rule as the data show it: active = GI50 up to about 1.1 µM and inactive = higher.

Tests used:
Test in all cases: DTP human tumour cell line panel, 48 h
[1] = test system: HOP-62
[2] = test system: TK-10
[3] = test system: DU-145
[4] = test system: HCT-116
[5] = test system: MDA-N
[6] = test system: HCC 2998
[7] = test system: PC-3
[8] = test system: A498
[9] = test system: OVCAR-4
[10] = test system: UO-31
[11] = test system: SNB-19
[12] = test system: NCI-H522
[13] = test system: BT-549
[14] = test system: 786-0
[15] = test system: T47D
[16] = test system: NCI-H226
[17] = test system: COLO 205
[18] = test system: SNB-75
[19] = test system: OVCAR-8
[20] = test system: NCI-H23
[21] = test system: HT-29
[22] = test system: SK-MEL-2
[23] = test system: MDA-MB-231
[24] = test system: MOLT-4
[25] = test system: IGROV-1
[26] = test system: OVCAR-3
[27] = test system: ACHN
[28] = test system: U-251
[29] = test system: OVCAR-5
[30] = test system: MCF7
[31] = test system: SF-539
[32] = test system: HCT-15
[33] = test system: RXF 393
[34] = test system: SF-268
[35] = test system: SF-295
[36] = test system: RPMI-8226
[37] = test system: SW-620
[38] = test system: M14
[39] = test system: KM12
[40] = test system: NCI-H460
[41] = test system: LOX IMVI
[42] = test system: SK-MEL-5
[43] = test system: Hs-578T
[44] = test system: MDA-MB-435
[45] = test system: SN12C
[46] = test system: UACC-257
[47] = test system: CAKI-1
[48] = test system: NCI/ADR-RES
[49] = test system: SK-OV-3
[50] = test system: A549
[51] = test system: UACC-62
[52] = test system: CCRF-CEM
[53] = test system: EKVX
[54] = test system: SK-MEL-28
[55] = test system: K562
[56] = test system: Malme-3M
[57] = test system: HOP-92
[58] = test system: HL-60
[59] = test system: SR

CC(C)CC1C(=O)OC(C)(C)OC1=O was tested, and the GI50 [1] was > 100 µM (inactive), the GI50 [2] was > 100 µM (inactive) and the GI50 [3] was > 100 µM (inactive). For the same compound, the GI50 [4] was > 100 µM (inactive), the GI50 [5] was > 100 µM (inactive) and the GI50 [6] was > 100 µM (inactive). The GI50 [7] was > 100 µM (inactive), the GI50 [8] was > 100 µM (inactive) and the GI50 [9] was > 100 µM (inactive). For the same compound, the GI50 [10] was > 100 µM (inactive), the GI50 [11] was > 100 µM (inactive) and the GI50 [12] was > 100 µM (inactive). The GI50 [13] was > 100 µM (inactive), the GI50 [14] was > 100 µM (inactive) and the GI50 [15] was > 100 µM (inactive). For the same compound, the GI50 [16] was > 100 µM (inactive), the GI50 [17] was > 100 µM (inactive) and the GI50 [18] was > 100 µM (inactive). For the same compound, the GI50 [19] was > 100 µM (inactive), the GI50 [20] was > 100 µM (inactive) and the GI50 [21] was > 100 µM (inactive). For the same compound, the GI50 [22] was > 100 µM (inactive), the GI50 [23] was > 100 µM (inactive) and the GI50 [24] was > 100 µM (inactive). The GI50 [25] was > 100 µM (inactive), the GI50 [26] was > 100 µM (inactive) and the GI50 [27] was > 100 µM (inactive). The GI50 [28] was > 100 µM (inactive), the GI50 [29] was > 100 µM (inactive) and the GI50 [30] was > 100 µM (inactive). For the same compound, the GI50 [31] was > 100 µM (inactive), the GI50 [32] was > 100 µM and the GI50 [33] was > 100 µM (inactive). For the same compound, the GI50 [34] was > 100 µM (inactive), the GI50 [35] was > 100 µM (inactive) and the GI50 [36] was > 100 µM (inactive). The GI50 [37] was > 100 µM (inactive), the GI50 [38] was > 100 µM (inactive) and the GI50 [39] was > 100 µM (inactive). For the same compound, the GI50 [40] was > 100 µM (inactive), the GI50 [41] was > 100 µM (inactive) and the GI50 [42] was > 100 µM (inactive). For the same compound, the GI50 [43] was > 100 µM (inactive), the GI50 [44] was > 100 µM (inactive) and the GI50 [45] was > 100 µM (inactive). The GI50 [46] was > 100 µM (inactive), the GI50 [47] was > 100 µM (inactive) and the GI50 [48] was > 100 µM (inactive). The GI50 [49] was > 100 µM (inactive), the GI50 [50] was > 100 µM (inactive) and the GI50 [51] was > 100 µM (inactive). The GI50 [52] was > 100 µM (inactive), the GI50 [53] was > 100 µM (inactive) and the GI50 [54] was > 100 µM (inactive). For the same compound, the GI50 [55] was > 100 µM (inactive).
For Cc1ccc(S(=O)(=O)c2scc(-c3ccccc3)c2C)cc1, the GI50 [1] was > 100 µM (inactive), the GI50 [2] was > 100 µM (inactive) and the GI50 [3] was 93.5 µM (inactive). For the same compound, the GI50 [4] was 77.1 µM (inactive), the GI50 [5] was > 100 µM (inactive) and the GI50 [6] was > 100 µM (inactive). The GI50 [7] was 89.3 µM (inactive), the GI50 [9] was > 100 µM (inactive) and the GI50 [10] was > 100 µM (inactive). For the same compound, the GI50 [11] was > 100 µM (inactive), the GI50 [12] was > 100 µM (inactive) and the GI50 [13] was 98.6 µM (inactive). The GI50 [14] was > 100 µM (inactive), the GI50 [15] was 36.5 µM (inactive) and the GI50 [16] was > 100 µM (inactive). For the same compound, the GI50 [17] was > 100 µM (inactive), the GI50 [18] was > 100 µM (inactive) and the GI50 [19] was > 100 µM (inactive). For the same compound, the GI50 [20] was 38.1 µM (inactive), the GI50 [21] was > 100 µM (inactive) and the GI50 [22] was 62.8 µM (inactive). For the same compound, the GI50 [23] was > 100 µM (inactive), the GI50 [24] was 42.7 µM (inactive) and the GI50 [25] was > 100 µM (inactive). The GI50 [26] was 77.3 µM (inactive), the GI50 [27] was 67.6 µM (inactive) and the GI50 [28] was > 100 µM (inactive). The GI50 [30] was 61.1 µM (inactive), the GI50 [31] was 61 µM (inactive) and the GI50 [32] was > 100 µM. The GI50 [33] was > 100 µM (inactive), the GI50 [34] was > 100 µM (inactive) and the GI50 [35] was 42.8 µM (inactive). For the same compound, the GI50 [36] was 44.2 µM (inactive), the GI50 [37] was > 100 µM (inactive) and the GI50 [38] was > 100 µM (inactive). The GI50 [39] was > 100 µM (inactive), the GI50 [40] was > 100 µM (inactive) and the GI50 [41] was 64.3 µM (inactive). For the same compound, the GI50 [42] was 40.2 µM (inactive), the GI50 [43] was > 100 µM (inactive) and the GI50 [44] was 91 µM (inactive). The GI50 [56] was > 100 µM (inactive), the GI50 [45] was > 100 µM (inactive) and the GI50 [46] was 74 µM (inactive). The GI50 [47] was > 100 µM (inactive), the GI50 [48] was 35.5 µM (inactive) and the GI50 [49] was > 100 µM (inactive). For the same compound, the GI50 [50] was 57.8 µM (inactive), the GI50 [51] was > 100 µM (inactive) and the GI50 [53] was 37.6 µM (inactive). For the same compound, the GI50 [54] was > 100 µM (inactive), the GI50 [57] was 72.4 µM (inactive) and the GI50 [58] was 45 µM (inactive). The GI50 [55] was 53 µM (inactive).
With CCC(=O)Nc1ccc(N2C(=O)C(Cl)C2c2ccc(SC)cc2)cc1 (stereo unspecified) the GI50 [1] was 61.7 µM (inactive), the GI50 [3] was > 100 µM (inactive) and the GI50 [4] was > 100 µM (inactive). For the same compound, the GI50 [5] was > 100 µM (inactive), the GI50 [6] was 30.9 µM (inactive) and the GI50 [7] was > 100 µM (inactive). For the same compound, the GI50 [8] was > 100 µM (inactive), the GI50 [9] was 33.5 µM (inactive) and the GI50 [10] was > 100 µM (inactive). The GI50 [59] was 40.6 µM (inactive), the GI50 [11] was > 100 µM (inactive) and the GI50 [12] was 41 µM (inactive). For the same compound, the GI50 [13] was > 100 µM (inactive), the GI50 [14] was 57.3 µM (inactive) and the GI50 [15] was 73.6 µM (inactive). The GI50 [16] was 31.5 µM (inactive), the GI50 [17] was 40.4 µM (inactive) and the GI50 [18] was > 100 µM (inactive). The GI50 [19] was > 100 µM (inactive), the GI50 [20] was > 100 µM (inactive) and the GI50 [21] was > 100 µM (inactive). For the same compound, the GI50 [22] was 65 µM (inactive), the GI50 [24] was 67.8 µM (inactive) and the GI50 [25] was 94.2 µM (inactive). The GI50 [26] was 81.5 µM (inactive), the GI50 [27] was > 100 µM (inactive) and the GI50 [29] was 97.5 µM (inactive). The GI50 [30] was 56.2 µM (inactive), the GI50 [31] was 26.9 µM (inactive) and the GI50 [32] was 98.2 µM. For the same compound, the GI50 [33] was 34.8 µM (inactive), the GI50 [34] was 60.3 µM (inactive) and the GI50 [35] was > 100 µM (inactive). For the same compound, the GI50 [36] was 32.5 µM (inactive), the GI50 [37] was > 100 µM (inactive) and the GI50 [38] was > 100 µM (inactive). The GI50 [39] was > 100 µM (inactive), the GI50 [40] was 32.8 µM (inactive) and the GI50 [41] was 40.1 µM (inactive). The GI50 [42] was 20.7 µM (inactive), the GI50 [43] was > 100 µM (inactive) and the GI50 [44] was 63.7 µM (inactive). For the same compound, the GI50 [56] was > 100 µM (inactive), the GI50 [45] was 50.2 µM (inactive) and the GI50 [46] was 44.9 µM (inactive). The GI50 [47] was > 100 µM (inactive), the GI50 [48] was > 100 µM (inactive) and the GI50 [49] was > 100 µM (inactive). For the same compound, the GI50 [50] was > 100 µM (inactive), the GI50 [51] was > 100 µM (inactive) and the GI50 [52] was 26.9 µM (inactive). The GI50 [53] was 52.7 µM (inactive), the GI50 [54] was > 100 µM (inactive) and the GI50 [57] was > 100 µM (inactive). The GI50 [58] was 78.3 µM (inactive) and the GI50 [55] was 72.9 µM (inactive).
